The results in this text go back to patent US20150087627A1, “COMBINATION OF KINASE INHIBITORS AND USES THEREOF” (Intellikine LLC, priority 2011, published 2015).

Read-outs that look alike come from different tables or passages of the source. Bounds are passed on as bounds.

Common to all, as to assay type: biochemical
The target in one test is T1, PI3K α (p110α/p85α) (Homo sapiens, UniProt P42336).
T1 construct: purchased Upstate / Millipore Corporation
Description: PI 3-Kinase (human) HTRF assay, PI3K α. The conditions noted are these: read-out: PI3K α IC50.

The next test has as its target T2, PI3K γ (p110γ) (Homo sapiens, UniProt P48736).
T2 construct: purchased Upstate / Millipore Corporation
Put plainly: PI 3-Kinase (human) HTRF assay, PI3K γ. The settings on record: read-out: PI3K γ IC50. (In general: Time-resolved FRET reads energy transfer from a long-lived donor to a nearby acceptor.)

The next test deals with T3, PI3K δ (Homo sapiens, UniProt O00329).
T3 construct: purchased Upstate / Millipore Corporation
Description: PI 3-Kinase (human) HTRF assay, PI3K δ. The settings on record: read-out: PI3K δ IC50.

A further test addresses T4, PI3K β (p110β/p85α) (Homo sapiens, UniProt P42338).
T4 construct: purchased Upstate / Millipore Corporation
Description: PI 3-Kinase (human) HTRF assay, PI3K β. The conditions noted are these: read-out: PI3K β IC50.

T1 sequence (P42336 whole entry): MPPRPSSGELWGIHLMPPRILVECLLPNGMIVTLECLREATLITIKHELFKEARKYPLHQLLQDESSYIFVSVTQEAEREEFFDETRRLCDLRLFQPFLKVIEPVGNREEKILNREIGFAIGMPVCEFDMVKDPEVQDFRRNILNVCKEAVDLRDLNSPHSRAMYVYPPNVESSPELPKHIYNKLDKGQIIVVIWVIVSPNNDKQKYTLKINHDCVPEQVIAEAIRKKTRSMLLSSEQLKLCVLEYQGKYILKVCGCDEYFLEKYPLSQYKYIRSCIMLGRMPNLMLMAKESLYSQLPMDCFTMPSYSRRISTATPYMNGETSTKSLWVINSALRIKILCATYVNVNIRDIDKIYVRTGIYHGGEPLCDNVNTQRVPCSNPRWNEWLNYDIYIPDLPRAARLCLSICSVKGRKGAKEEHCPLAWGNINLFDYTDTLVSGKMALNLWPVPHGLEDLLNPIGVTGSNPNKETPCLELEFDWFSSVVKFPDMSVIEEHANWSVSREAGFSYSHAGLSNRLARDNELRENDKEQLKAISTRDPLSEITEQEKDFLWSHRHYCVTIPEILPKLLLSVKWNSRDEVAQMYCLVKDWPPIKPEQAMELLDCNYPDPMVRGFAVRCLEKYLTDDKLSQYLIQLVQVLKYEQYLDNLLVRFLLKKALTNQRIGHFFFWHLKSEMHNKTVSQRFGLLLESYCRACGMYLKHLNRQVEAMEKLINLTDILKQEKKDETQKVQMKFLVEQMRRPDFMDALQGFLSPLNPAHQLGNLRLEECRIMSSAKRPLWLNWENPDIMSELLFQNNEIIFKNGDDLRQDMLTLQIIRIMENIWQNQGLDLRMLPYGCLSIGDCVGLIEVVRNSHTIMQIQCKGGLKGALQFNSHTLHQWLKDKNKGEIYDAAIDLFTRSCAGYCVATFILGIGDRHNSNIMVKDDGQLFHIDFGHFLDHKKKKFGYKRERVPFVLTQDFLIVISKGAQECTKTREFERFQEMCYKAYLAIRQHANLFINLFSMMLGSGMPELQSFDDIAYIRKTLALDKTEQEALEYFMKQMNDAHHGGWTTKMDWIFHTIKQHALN
T1 sequence (P27986 whole entry partner): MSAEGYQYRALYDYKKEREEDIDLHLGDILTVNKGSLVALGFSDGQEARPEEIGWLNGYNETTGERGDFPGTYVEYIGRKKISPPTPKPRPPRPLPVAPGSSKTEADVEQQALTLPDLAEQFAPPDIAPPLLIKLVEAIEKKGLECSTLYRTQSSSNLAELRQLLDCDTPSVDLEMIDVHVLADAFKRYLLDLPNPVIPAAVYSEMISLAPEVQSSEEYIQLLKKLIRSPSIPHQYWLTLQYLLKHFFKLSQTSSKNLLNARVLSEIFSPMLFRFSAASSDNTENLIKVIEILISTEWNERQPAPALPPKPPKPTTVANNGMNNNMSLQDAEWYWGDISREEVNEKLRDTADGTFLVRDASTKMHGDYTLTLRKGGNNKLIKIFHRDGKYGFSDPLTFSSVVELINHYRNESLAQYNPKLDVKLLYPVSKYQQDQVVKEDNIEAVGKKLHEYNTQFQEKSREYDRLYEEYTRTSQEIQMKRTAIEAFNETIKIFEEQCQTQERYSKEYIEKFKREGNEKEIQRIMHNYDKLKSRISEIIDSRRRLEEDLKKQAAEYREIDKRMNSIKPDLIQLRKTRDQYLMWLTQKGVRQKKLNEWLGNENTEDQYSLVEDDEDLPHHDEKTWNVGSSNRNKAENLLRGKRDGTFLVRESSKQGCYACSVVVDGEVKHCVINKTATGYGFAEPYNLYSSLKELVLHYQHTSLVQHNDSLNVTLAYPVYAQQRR
T2 sequence (P48736 whole entry): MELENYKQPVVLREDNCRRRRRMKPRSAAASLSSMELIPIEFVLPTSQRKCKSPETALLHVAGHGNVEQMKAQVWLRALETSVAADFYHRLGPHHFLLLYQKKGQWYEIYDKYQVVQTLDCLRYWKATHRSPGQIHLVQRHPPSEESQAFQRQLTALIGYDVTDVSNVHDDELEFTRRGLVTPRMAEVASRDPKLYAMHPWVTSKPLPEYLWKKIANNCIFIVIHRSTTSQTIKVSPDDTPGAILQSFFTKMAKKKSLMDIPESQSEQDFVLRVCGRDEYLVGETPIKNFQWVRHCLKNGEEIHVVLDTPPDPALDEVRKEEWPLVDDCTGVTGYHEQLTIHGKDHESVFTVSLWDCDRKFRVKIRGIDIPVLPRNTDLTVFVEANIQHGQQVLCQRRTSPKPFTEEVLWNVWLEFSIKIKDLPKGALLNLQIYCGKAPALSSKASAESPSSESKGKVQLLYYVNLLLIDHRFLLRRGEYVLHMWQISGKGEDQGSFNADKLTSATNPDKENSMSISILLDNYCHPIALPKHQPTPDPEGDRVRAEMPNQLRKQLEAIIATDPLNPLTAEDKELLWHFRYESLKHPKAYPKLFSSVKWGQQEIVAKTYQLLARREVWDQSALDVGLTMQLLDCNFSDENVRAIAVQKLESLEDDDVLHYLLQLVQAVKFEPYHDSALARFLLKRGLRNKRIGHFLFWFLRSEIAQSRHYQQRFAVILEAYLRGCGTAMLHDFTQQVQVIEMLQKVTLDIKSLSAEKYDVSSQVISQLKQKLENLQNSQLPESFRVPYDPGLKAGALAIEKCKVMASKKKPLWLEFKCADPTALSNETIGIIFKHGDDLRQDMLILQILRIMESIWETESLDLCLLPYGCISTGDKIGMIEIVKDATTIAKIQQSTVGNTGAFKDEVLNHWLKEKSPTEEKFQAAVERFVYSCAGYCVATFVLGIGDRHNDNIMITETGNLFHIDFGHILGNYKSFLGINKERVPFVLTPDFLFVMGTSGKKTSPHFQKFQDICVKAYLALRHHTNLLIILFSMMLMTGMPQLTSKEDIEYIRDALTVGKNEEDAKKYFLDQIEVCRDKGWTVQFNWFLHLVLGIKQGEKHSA
T3 sequence (O00329 whole entry): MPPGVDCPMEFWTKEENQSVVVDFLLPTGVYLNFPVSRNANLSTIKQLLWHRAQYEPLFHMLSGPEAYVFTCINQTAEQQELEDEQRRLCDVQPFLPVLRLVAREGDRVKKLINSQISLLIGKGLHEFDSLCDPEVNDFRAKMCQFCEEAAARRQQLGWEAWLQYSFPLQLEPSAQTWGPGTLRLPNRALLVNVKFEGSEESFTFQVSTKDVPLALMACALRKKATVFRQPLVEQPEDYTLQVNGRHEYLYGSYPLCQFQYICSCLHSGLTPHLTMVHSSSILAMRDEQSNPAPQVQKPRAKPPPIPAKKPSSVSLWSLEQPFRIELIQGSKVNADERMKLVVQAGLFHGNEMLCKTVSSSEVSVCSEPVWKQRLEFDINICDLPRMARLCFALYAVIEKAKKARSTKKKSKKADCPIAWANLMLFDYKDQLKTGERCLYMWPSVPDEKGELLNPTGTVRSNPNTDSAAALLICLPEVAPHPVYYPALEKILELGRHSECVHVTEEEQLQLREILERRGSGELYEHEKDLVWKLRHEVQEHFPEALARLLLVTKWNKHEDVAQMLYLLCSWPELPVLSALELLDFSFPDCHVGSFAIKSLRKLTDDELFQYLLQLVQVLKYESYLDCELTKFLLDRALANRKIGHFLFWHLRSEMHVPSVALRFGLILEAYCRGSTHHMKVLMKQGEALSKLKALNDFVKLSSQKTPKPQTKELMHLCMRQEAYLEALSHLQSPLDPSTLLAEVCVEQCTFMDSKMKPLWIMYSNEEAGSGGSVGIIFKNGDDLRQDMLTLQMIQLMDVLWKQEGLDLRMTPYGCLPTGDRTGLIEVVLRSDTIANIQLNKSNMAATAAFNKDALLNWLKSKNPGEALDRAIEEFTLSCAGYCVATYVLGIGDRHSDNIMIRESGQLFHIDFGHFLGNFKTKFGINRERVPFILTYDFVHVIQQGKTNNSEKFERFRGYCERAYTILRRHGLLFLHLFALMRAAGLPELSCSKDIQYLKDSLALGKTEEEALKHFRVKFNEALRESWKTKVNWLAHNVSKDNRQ
T3 sequence (P27986 whole entry partner): as the sequence (P27986 whole entry partner) above
T4 sequence (P42338 whole entry): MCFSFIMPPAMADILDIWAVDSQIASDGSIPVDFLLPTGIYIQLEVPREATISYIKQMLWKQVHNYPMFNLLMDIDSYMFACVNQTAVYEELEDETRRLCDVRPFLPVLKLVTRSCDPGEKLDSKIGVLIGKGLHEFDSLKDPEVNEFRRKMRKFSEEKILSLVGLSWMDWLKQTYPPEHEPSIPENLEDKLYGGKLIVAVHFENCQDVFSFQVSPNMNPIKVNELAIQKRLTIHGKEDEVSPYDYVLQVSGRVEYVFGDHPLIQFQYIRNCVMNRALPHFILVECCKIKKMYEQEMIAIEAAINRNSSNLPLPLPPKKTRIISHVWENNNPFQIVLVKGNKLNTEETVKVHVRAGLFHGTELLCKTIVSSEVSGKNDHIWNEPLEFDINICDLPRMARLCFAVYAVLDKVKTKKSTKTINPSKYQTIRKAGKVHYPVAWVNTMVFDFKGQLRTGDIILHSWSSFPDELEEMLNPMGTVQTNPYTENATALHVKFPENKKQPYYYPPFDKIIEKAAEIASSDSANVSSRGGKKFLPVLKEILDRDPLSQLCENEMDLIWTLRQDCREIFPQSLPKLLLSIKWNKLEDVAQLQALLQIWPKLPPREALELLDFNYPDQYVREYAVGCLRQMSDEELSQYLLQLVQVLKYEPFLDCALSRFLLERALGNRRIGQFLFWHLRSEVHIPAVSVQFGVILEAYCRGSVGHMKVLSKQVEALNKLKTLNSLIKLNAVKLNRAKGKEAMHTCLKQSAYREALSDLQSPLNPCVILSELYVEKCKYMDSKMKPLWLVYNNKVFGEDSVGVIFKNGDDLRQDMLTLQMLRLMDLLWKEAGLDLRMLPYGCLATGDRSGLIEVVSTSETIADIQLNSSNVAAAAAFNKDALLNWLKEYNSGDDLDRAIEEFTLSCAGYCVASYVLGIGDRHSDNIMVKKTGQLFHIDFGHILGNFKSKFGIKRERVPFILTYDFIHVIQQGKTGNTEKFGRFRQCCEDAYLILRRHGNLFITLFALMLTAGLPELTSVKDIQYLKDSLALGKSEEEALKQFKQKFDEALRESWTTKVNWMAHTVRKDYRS
T4 sequence (P27986 whole entry partner): as the sequence (P27986 whole entry partner) above
Description for PI3K β (p110β/p85α): (§1) Briefly, the assay is a time resolved FRET assay that indirectly measures PIP3 product formed by the activity of a PI3-K. The kinase reaction is performed in a microtiter plate (e.g., a 384 well microtiter plate). The total reaction volume is approximately 20 ul per well. In the first step, each well receives 2 ul of test compound in 20% dimethylsulphoxide resulting in a 2% DMSO final concentration. […] The plate is sealed and incubated for 15 minutes at room temperature. […] The plate is sealed and incubated for 1 hour at room temperature. The reaction is stopped by adding 5 ul of Stop Solution per well and then 5 ul of Detection Mix is added per well. The plate is sealed, incubated for 1 hour at room temperature, and then read on an appropriate plate reader. Data is analyzed and IC50s are generated using GraphPad Prism 5.
Description for PI3K δ: as §1

Consider `Cn1c(N2CCOCC2)nc2cc(-c3ccc4oc(N)nc4c3)ccc2c1=O` [Compound 80], for which the IC50 on PI3K α (p110α/p85α) is below 1 µM; at PI3K γ (p110γ), above 10 µM; at PI3K δ, above 10 µM; at PI3K β (p110β/p85α), above 10 µM.

`CN1CC(n2cnc3ccc(-c4ccc5oc(N)nc5c4)cc3c2=O)C1` [Compound 528]: the IC50 at PI3K α (p110α/p85α) is below 1 µM; on PI3K γ (p110γ), above 10 µM; at PI3K δ, above 10 µM; on PI3K β (p110β/p85α), below 10 µM.

Consider `C[C@H](N)C(=O)N1CCN(c2cnc3ccc(-c4ccc5oc(N)nc5c4)nc3c2)CC1` [Compound 589], for which the IC50 was below 0.1 µM at PI3K α (p110α/p85α) (Table 4 (PI3K α inhibitors)), below 1 µM at PI3K γ (p110γ) (Table 4 (PI3K α inhibitors)), below 1 µM on PI3K δ (Table 4 (PI3K α inhibitors)) and below 1 µM at PI3K β (p110β/p85α) (Table 4 (PI3K α inhibitors)).

For `Nc1nc2cc(-c3ccc4ncc(C(=O)N5CC6CCC(C5)O6)n4c3)ccc2o1` [Compound 504], the IC50 at PI3K α (p110α/p85α) was below 1 µM; at PI3K γ (p110γ) it was below 0.1 µM; at PI3K δ it was above 10 µM; on PI3K β (p110β/p85α), below 10 µM.

Regarding `Cc1nccn1C1CCN(c2cnc3ccc(-c4ccc5oc(N)nc5c4)cc3n2)CC1` [Compound 344], the IC50 at PI3K α (p110α/p85α) is below 0.1 µM; at PI3K γ (p110γ), below 10 µM; at PI3K δ it was below 1 µM; at PI3K β (p110β/p85α), below 10 µM.

For `CN1CCN(CCn2cnc3ccc(-c4ccc5oc(N)nc5c4)cc3c2=O)CC1` [Compound 280], the IC50 is below 10 µM at PI3K α (p110α/p85α), above 10 µM at PI3K γ (p110γ), above 10 µM on PI3K δ and above 10 µM on PI3K β (p110β/p85α).

With `Nc1nc2cc(-c3ccc4ncc(C(=O)N5CCCCC5)n4c3)ccc2o1` [Compound 196], the IC50 was below 1 µM at PI3K α (p110α/p85α), below 10 µM on PI3K γ (p110γ), above 10 µM at PI3K δ and below 10 µM on PI3K β (p110β/p85α).

As for `CN(C)C1CN(c2cnc3ccc(-c4ccc5oc(N)nc5c4)cc3n2)C1` [Compound 366], the IC50 at PI3K α (p110α/p85α) was below 0.1 µM; at PI3K γ (p110γ), below 10 µM; at PI3K δ, above 10 µM; at PI3K β (p110β/p85α), below 10 µM.

`O=C(c1cnc2ccc(-c3cnc(Cl)c(NS(=O)(=O)c4ccc(F)cc4)c3)cn12)N1CCOCC1` [Compound 457]: the IC50 at PI3K α (p110α/p85α), on PI3K γ (p110γ), at PI3K δ and at PI3K β (p110β/p85α) was below 0.1 µM throughout.

On to `Nc1nc2cc(-c3ccc4ncc(N5CC(n6ccnc6)C5)nc4c3)ccc2o1` [Compound 319], for which the IC50 at PI3K α (p110α/p85α) is below 0.1 µM; on PI3K γ (p110γ), below 1 µM; on PI3K δ, below 10 µM; at PI3K β (p110β/p85α) it was below 1 µM.

On to `Nc1nc2cc(-c3ccc4ncc(N5CCOCC5)n4n3)ccc2o1` [Compound 57], for which the 50% inhibitory concentration (IC50) at PI3K α (p110α/p85α) was below 1 µM; on PI3K γ (p110γ) it was below 10 µM; at PI3K δ, above 10 µM; at PI3K β (p110β/p85α), below 1 µM.

For `Nc1nc2cc(-c3ccc4ncn(CCN5CCCC5)c(=O)c4c3)ccc2o1` [Compound 255], the IC50 at PI3K α (p110α/p85α), on PI3K γ (p110γ), on PI3K δ and at PI3K β (p110β/p85α) was below 10 µM in each case.

As for `NCC(=O)N1CCN(c2cnc3ccc(-c4ccc5oc(N)nc5c4)cc3n2)CC1` [Compound 192], the IC50 was below 0.1 µM at PI3K α (p110α/p85α), below 1 µM at PI3K γ (p110γ), below 1 µM at PI3K δ and below 1 µM on PI3K β (p110β/p85α).

In the case of `CN(C)CC(=O)N1CCN(c2cnc3ccc(-c4ccc5oc(N)nc5c4)cc3n2)CC1` [Compound 217], the IC50 at PI3K α (p110α/p85α) is below 0.1 µM; on PI3K γ (p110γ), below 1 µM; on PI3K δ it was below 1 µM; at PI3K β (p110β/p85α), below 1 µM.

For the compound `CC(Oc1nc(-c2ccc3ncc(C(=O)N4CCOCC4)n3c2)cnc1N)C(F)(F)F` (stereo not shown) [Compound 411], the IC50 at PI3K α (p110α/p85α) is below 0.1 µM; at PI3K γ (p110γ) it was below 1 µM; at PI3K δ, below 10 µM; on PI3K β (p110β/p85α) it was below 10 µM.

For `C[C@H]1CN(c2cnc3ccc(-c4ccc5sc(N)nc5c4)cc3n2)CCN1` [Compound 307], the IC50 was below 1 µM on PI3K α (p110α/p85α), above 10 µM on PI3K γ (p110γ), above 10 µM at PI3K δ and below 1 µM at PI3K β (p110β/p85α).

Broadly, the IC50 is the concentration that inhibits the measured activity by half.
